From US20100003217A1, “Compounds and Pharmaceutical Compositions for the Treatment of Viral Infections” (priority 2008, published 2010)
Where two headings read alike, the source gives them in different places.

Legend:
[1] = Metabolite profile in rat liver; type: in vivo, male Sprague-Dawley rats; details: for Percent of Dose, Liver 24 h: after [14C]Compound 1; for concentration at 2 h / concentration at 6 h / concentration at 24 h: male, Sprague-Dawley, rat, liver, read-out: liver concentration as μg equivalents/g; for % of the total radioactivity in liver / liver metabolite, % of the administered dose: rat liver; for liver metabolite, % of the administered dose: IV dose
Experimental: Homogenates were prepared on dry ice in 70% methanol-30% water containing 20 mM EDTA and 20 mM EGTA (about 1× (w/v) weight of the liver) and were stored frozen. Pooled liver samples were prepared for all groups by combining a fixed percentage of the total weight of each individual animal sample homogenate for each group. Each pooled liver homogenate (3.77-5.02 g) was placed in a 50-mL polypropylene centrifuge tube and 16.0 mL of methanol:water (70:30) was added. The sample was vortexed for one minute, and then centrifuged at 11200×g for 20 minutes. The supernatant was transferred to a tube and total volume was measured. The extraction procedure was repeated three additional times. Radioactivity of each supernatant was determined by LSC of duplicate aliquots (100 μL each) for extraction recovery. Subsamples of all four extracts from each sample were taken for proportionate pooling. For Group 1, the subsamples were pooled before concentration and, for Group 2, each subsample was concentrated separately and then pooled due to the larger volumes involved. Each extract was completely dried or reduced to approximately 100 μL. Reconstitution was accomplished with methanol (20 μL) and sufficient volume of the aqueous mobile phase of HPLC method 2 such that the total volume of each reconstituted sample was 500 μL. Duplicate aliquots of the reconstituted samples were analyzed by LSC. Each sample was analyzed by HPLC method 2.
Percent of the administered dose (% AD) for parent drug and each metabolite at each collection period=(% of the total radioactivity in the sample attributed to the metabolite)*(total radioactivity expressed as % of the administered dose, recovered during the corresponding collection period).
Microgram equivalents/g for parent drug or metabolite at each collection period (% radioactivity for each metabolite)*(total μg equivalents/g during the corresponding collection period).
Liver homogenates were pooled for each time point for both dose groups by proportional mixing according to the weight of the samples from individual animals. The pooled samples were extracted and prepared for HPLC analysis as described above. The abundance of metabolites was determined as a % of the administered dose and as μg equivalent/g. The data are presented in Table 54, Table 55, Table 56 and Table 57, respectively. Metabolites R^1, R^8 and R^9 were characterized based on retention time.

[2] = Metabolite profiling in human liver microsomes; type: in vitro ADME; design: key: +: peak detected; ?: peak observed; ND: not detected; details: 50 μM Compound 1, 2 hours
Experimental: Preliminary identification of putative metabolites was conducted by comparing the retention time of observed metabolites with retention times obtained with chemically synthesized standards using the following HPLC-UV method:
Incubations with liver microsomes, liver cytosol or pig liver esterase were conducted in a final volume of 0.1 mL per incubation time point. Pooled microsomal protein (1.0 mg/mL) suspended in incubation buffer (0.1 M potassium phosphate, pH 7.4) was incubated for 2 hours at 37° C. with 50 μM Compound 1 from a stock solution in DMSO (final DMSO concentration was 0.1%); the microsomal reaction was initiated by the addition of an NADPH regenerating system (1.3 mM NADP^+, 3.3 mM glucose-6-phosphate, 0.4 U/ml glucose-6-phosphate dehydrogenase, and 3.3 mM MgCl2, final concentrations). Incubations with no NADPH or no protein served as controls. Reactions were terminated by the addition of 0.1 mL of stop solution (acetonitrile). The samples were vortex-mixed for 30 sec and then centrifuged at 10,000×g for 10 min. The supernatant was dried using a Labconco CentriVap concentrator and the dry residue reconstituted in water, transferred to an HPLC glass vial and analyzed by HPLC-UV method 2 (described above).
Results: Preliminary identification was accomplished by comparing LC elution of metabolites with that of available synthetic standards of putative metabolites (FIG. 2). Metabolites U1, U2 and U3 were characterized based on the retention times.

[3] = Stability in rat liver microsomes; type: in vitro ADME; details: for % Residual Compound 2 / % Residual Compound 1: rat liver microsomes 1 mg/mL; for % Residual Compound 2: 15 min; for NADPH-dependent metabolism: rat liver microsomes; for % Residual compound following incubation with liver microsomes: rat microsomes 1 mg/mL
Experimental: Disappearance of parent Compound 1 was used to evaluate the in vitro metabolism thereof. Relative levels of unchanged Compound 1 were measured by HPLC-UV method 1. Residual Compound 1 is reported as percent difference from time zero or control. The HPLC-UV system was as follows:
Incubations with liver microsomes or cytosol were conducted in a final volume of 0.1 mL per incubation time point. […] DMSO (final DMSO concentration was 0.1%) was incubated at 37° C. from 0-60 min with pooled microsomal protein (1.0 mg/mL), suspended in incubation buffer (0.1 M potassium phosphate, pH 7.4, 5 mM MgCl2, and 0.1 mM EDTA). The microsomal reaction was initiated by the addition of NADPH (3 mM final concentration). Incubations with (a) no protein or (b) no NADPH served as controls. Reactions were terminated by the addition of 0.2 mL of stop solution (acetonitrile). The samples were vortex-mixed for 30 sec and then centrifuged at 10,000×g for 10 min. The supernatant was dried using a Labconco CentriVap concentrator and the dry residue reconstituted in water, transferred to an HPLC glass vial and analyzed by HPLC-UV method 1 (described above).
(§1) Metabolic stability of the proposed metabolites was conducted by incubating the chemically synthesized standards Compound 2, Compound 4 and Compound 3 as described above for Compound 1. When possible, formation of Compound 5 was verified by incubating samples with alkaline phosphatase (10 U) for 60 min at 37° C.

pig liver esterase = test: Incubation with pig liver esterase; type: in vitro ADME; details: for Residual compound following incubation with pig liver esterase: Esterase 14 U, 60 min, 10 μM
Experimental: Pig liver esterase (14 U) suspended in incubation buffer (0.1 M potassium phosphate, pH 7.4) was incubated for 60 min at 37° C. with 10 μM Compound 1 from a stock solution in DMSO (final DMSO concentration was 0.1%); reaction was initiated with the addition of test article. Incubations with no protein served as controls. Reactions were terminated by the addition of 0.1 mL of stop solution (acetonitrile). The samples were vortex-mixed for 30 sec and then centrifuged at 10,000×g for 10 min. The supernatant was dried using a Labconco CentriVap concentrator and the dry residue reconstituted in water, transferred to an HPLC glass vial and analyzed by HPLC-UV method 2 (described above).
as §1

[4] = group 1 (IV dose) pooled liver, 2 h
[5] = group 1 (IV dose) pooled liver, 2 h (Table 56)
[6] = group 1 (IV dose) pooled liver, 6 h
[7] = group 1 (IV dose) pooled liver, 6 h (Table 56)
[8] = group 1 (IV dose) pooled liver, 24 h
[9] = group 1 (IV dose) pooled liver, 24 h (Table 56)
[10] = iv, 50 mg/kg, group 1 (IV dose) pooled liver, 2 h
[11] = iv, 50 mg/kg, group 1 (IV dose) pooled liver, 6 h
[12] = iv, 50 mg/kg, group 1 (IV dose) pooled liver, 24 h
[13] = group 2 (PO dose) pooled liver, 2 h
[14] = group 2 (PO dose) pooled liver, 6 h
[15] = group 2 (PO dose) pooled liver, 24 h

| Structure (SMILES) | Percent of Dose, Liver 24 h ([1]; IV) | % AD [1, 4] | % HPLC (percent of HPLC peak area in the sample extract) [1, 4] | % HPLC (percent of HPLC peak area in the sample extract) [1, 5] | % AD [1, 6] | % HPLC (percent of HPLC peak area in the sample extract) [1, 6] | % HPLC (percent of HPLC peak area in the sample extract) [1, 7] | % AD [1, 8] | % HPLC (percent of HPLC peak area in the sample extract) [1, 8] | % HPLC (percent of HPLC peak area in the sample extract) [1, 9] | concentration at 2 h [1, 10] | concentration at 6 h [1, 11] | concentration at 24 h [1, 12] | % of the total radioactivity in liver ([1]; IV dose, 2, 6 and 24 h) | % of the total radioactivity in liver ([1]; PO dose, 2, 6 and 24 h) | In vitro metabolite profile in microsomes following incubation with Compound 1 (peak detection) [2] | Residual compound following incubation with pig liver esterase (pig liver esterase) | also measured |
| --- | --- | --- | --- | --- | --- | --- | --- | --- | --- | --- | --- | --- | --- | --- | --- | --- | --- | --- |
| C[C@@]1(O)[C@H](O)[C@@H](COP(=O)(O)O)O[C@H]1n1cnc2c(=O)[nH]c(N)nc21 [Compound 5, [(2R)-2-methyl-β-D-ribofuranosyl]guanine 5′-monophosphate] | 1.05% of Dose | 9.73 % AD | 62.6% | 62.6% | 6.39 % AD | 63.1% | 63.1% | 1.05 % AD | 59.9% | 59.9% | 129000 ng/g | 86200 ng/g | 13900 ng/g | 60-63% | not detected | + |  | liver metabolite, % of the administered dose ([1]; 2 h (Group 1A)): 9.7 % AD; liver metabolite, % of the administered dose ([1]; 6 h (Group 1B)): 6.4 % AD; liver metabolite, % of the administered dose ([1]; 24 h): 1.1 % AD |
| C[C@@]1(O)[C@H](O)[C@@H](COP(=O)(O)NCc2ccccc2)O[C@H]1n1cnc2c(=O)[nH]c(N)nc21 [Compound 2, [(2R)-2-methyl-β-D-ribofuranosyl]guanine-N-benzylaminyl-5′-monophosphate] |  |  |  |  |  |  |  |  |  |  |  |  |  |  |  |  | 0% | % Residual Compound 2 ([3]; 10 μM, NADPH): 0%; % Residual Compound 2 ([3]; 10 μM, No Cofactor): 0% |
| CC(C)(CO)C(=O)SCCOP(N)(=O)OC[C@H]1O[C@@H](n2cnc3c(=O)[nH]c(N)nc32)[C@](C)(O)[C@@H]1O (mixture of isomers) [Compound 3, {9-[(2R)2-C-methyl-β-D-ribo-furanosyl]-guanin}-5′-yl-O-(hydroxy-tert-butyl-S-acyl-2-thioethyl) phosphoramidate] |  |  |  |  |  |  |  |  |  |  |  |  |  |  |  |  | 97% | NADPH-dependent metabolism ([3]; 60 min, 50 μM): 10%; % Residual compound following incubation with liver microsomes ([3]; 60 min, 50 μM, NADPH): 90%; % Residual compound following incubation with liver microsomes ([3]; 60 min, 50 μM, No Cofactor): 101% |
| CC(C)(CO)C(=O)SCCOP(=O)(NCc1ccccc1)OC[C@H]1O[C@@H](n2cnc3c(=O)[nH]c(N)nc32)[C@](C)(O)[C@@H]1O (mixture of isomers) [Compound 1, 3-hydroxy-2,2-dimethyl-thiopropionic acid S-(2-{[(2R,3R,4R,5R)-5-(2-amino-6-oxo-1,6-dihydro-purin-9-yl)-3,4-dihydroxy-4-methyl-tetrahydro-furan-2-ylmethoxy]-benzylamino-phosphoryloxy}-ethyl) ester] |  |  |  |  |  |  |  |  |  |  |  |  |  |  |  | + | 75% | % Residual Compound 1 ([3]; 10 μM, 0 min, NADPH): 100%; % Residual Compound 1 ([3]; 10 μM, 0 min, No Cofactor): 100%; % Residual Compound 1 ([3]; 10 μM, 30 min, NADPH): 53%; % Residual Compound 1 ([3]; 10 μM, 30 min, No Cofactor): 103%; % Residual Compound 1 ([3]; 10 μM, 60 min, NADPH): 36%; % Residual Compound 1 ([3]; 10 μM, 60 min, No Cofactor): 103%; NADPH-dependent metabolism ([3]; NADPH, 60 min, 10 μM): 64%; Compound 1 converted to Compound 2 (pig liver esterase; pig liver esterase, 60-min incubation): 25% |
| C[C@@]1(O)[C@H](O)[C@@H](CO)O[C@H]1n1cnc2c(=O)[nH]c(N)nc21 [2′-C-methyl guanosine, 9-(2-C-methyl-β-D-ribofuranosyl)guanine, reference compound] | 0.42% of Dose | 2.14 % AD | 13.8% | 13.8% | 1.48 % AD | 14.6% | 14.6% | 0.42 % AD | 23.9% | 23.9% | 28400 ng/g | 20000 ng/g | 5560 ng/g | 14-24% | 54-85% | + |  | Percent of Dose, Liver 24 h ([1]; Oral): 0.09% of Dose; % AD [1, 13]: 0.15 % AD; % HPLC (percent of HPLC peak area in the sample extract) [1, 13]: 77.5%; % HPLC (percent of HPLC peak area in the sample extract) ([1]; group 2 (PO dose) pooled liver, 2 h (Table 57)): 77.5%; % AD [1, 14]: 0.32 % AD; % HPLC (percent of HPLC peak area in the sample extract) [1, 14]: 85.0%; % HPLC (percent of HPLC peak area in the sample extract) ([1]; group 2 (PO dose) pooled liver, 6 h (Table 57)): 85.0%; % AD [1, 15]: 0.09 % AD; % HPLC (percent of HPLC peak area in the sample extract) [1, 15]: 53.9%; % HPLC (percent of HPLC peak area in the sample extract) ([1]; group 2 (PO dose) pooled liver, 24 h (Table 57)): 53.9%; concentration at 2 h ([1]; po, 100 mg/kg, group 2 (PO dose) pooled liver, 2 h): 3940 ng/g; concentration at 6 h ([1]; po, 100 mg/kg, group 2 (PO dose) pooled liver, 6 h): 8760 ng/g; concentration at 24 h ([1]; po, 100 mg/kg, group 2 (PO dose) pooled liver, 24 h): 2200 ng/g |
